Results published in the supplement of paper PMC13380429.

Key:
Details in all cases: 72 h
Caco-2 [1] = assay: cell viability relative to DMSO; higher = less toxic
Calu-3 [2] = assay: as above
HepG2 [3] = assay: as above
U2OS [4] = assay: as above
Vero E6 [5] = assay: as above
Caco-2 [6] = assay: relative viability EC50 (midpoint between 100% and the lowest measured viability); higher = less toxic
Calu-3 [7] = assay: as above
HepG2 [8] = assay: as above
U2OS [9] = assay: as above
Vero E6 [10] = assay: as above
Caco-2 [11] = assay: drug sensitivity score (DSS) for viability; higher = more toxic; extreme values may be limits of the assay
Calu-3 [12] = assay: as above
HepG2 [13] = assay: as above
U2OS [14] = assay: as above
Vero E6 [15] = assay: as above

Structure (SMILES)	cell viability (Caco-2 [1]; 1 nM) [%]	cell viability (Caco-2 [1]; 10 nM) [%]	cell viability (Caco-2 [1]; 100 nM) [%]	cell viability (Caco-2 [1]; 1000 nM) [%]	cell viability (Caco-2 [1]; 10000 nM) [%]	cell viability (Calu-3 [2]; 1 nM) [%]	cell viability (Calu-3 [2]; 10 nM) [%]	cell viability (Calu-3 [2]; 100 nM) [%]	cell viability (Calu-3 [2]; 1000 nM) [%]	cell viability (Calu-3 [2]; 10000 nM) [%]	cell viability (HepG2 [3]; 1 nM) [%]	cell viability (HepG2 [3]; 10 nM) [%]	cell viability (HepG2 [3]; 100 nM) [%]	cell viability (HepG2 [3]; 1000 nM) [%]	cell viability (HepG2 [3]; 10000 nM) [%]	cell viability (U2OS [4]; 1 nM) [%]	cell viability (U2OS [4]; 10 nM) [%]	cell viability (U2OS [4]; 100 nM) [%]	cell viability (U2OS [4]; 1000 nM) [%]	cell viability (U2OS [4]; 10000 nM) [%]	cell viability (Vero E6 [5]; 1 nM) [%]	cell viability (Vero E6 [5]; 10 nM) [%]	cell viability (Vero E6 [5]; 100 nM) [%]	cell viability (Vero E6 [5]; 1000 nM) [%]	cell viability (Vero E6 [5]; 10000 nM) [%]	relative viability EC50 (Caco-2 [6]) [µM]	relative viability EC50 (Calu-3 [7]) [µM]	relative viability EC50 (HepG2 [8]) [µM]	relative viability EC50 (U2OS [9]) [µM]	relative viability EC50 (Vero E6 [10]) [µM]	drug sensitivity score (Caco-2 [11])	drug sensitivity score (Calu-3 [12])	drug sensitivity score (HepG2 [13])	drug sensitivity score (U2OS [14])	drug sensitivity score (Vero E6 [15])
CN1CCCC(n2nc(Cc3ccc(Cl)cc3)c3ccccc3c2=O)CC1 (stereo not given) [azelastine]	95.2	91.2	98.2	94.2	87	97.1	96.7	105	114	92.3	113	91.5	101	89.3	89.2	104	111	98.8	100	93.4	108	95	110	103	94.9	> 10	> 10	> 10	> 10	> 10	0	0	0.3	0	0
NC(CO)C(=O)NNCc1ccc(O)c(O)c1O (stereo not given) [benserazide]	95.7	99	81.6	97.8	87.9	88.9	89.8	95.7	96.2	92.2	80.5	97.4	104	85	94.5	96.8	101	93	99.8	94	115	99.8	106	97	106	> 10	> 10	> 10	> 10	> 10	0	0	0	0	0
CCOC(=O)c1ccc(N)cc1 [benzocaine]	96.4	84.7	101	97.9	97	94	96	105	105	98.7	98.6	94.9	98.1	95	96.5	99.3	95.4	99.9	99.6	95.5	103	102	95.7	102	110	> 10	> 10	> 10	> 10	> 10	0	0	0	0	0
CN(Cc1cc(Br)cc(Br)c1N)C1CCCCC1 [bromhexine]	96.2	109	100	97.9	94.6	92	90.7	95.1	90.9	95.4	99.2	108	107	97.9	108	98.9	105	96.3	99.5	98.2	110	97.9	106	102	103	> 10	> 10	> 10	> 10	> 10	0	0	0	0	0
Cc1ccc(Cl)c(OCC(O)CNC(C)(C)C)c1 (stereo not given) [bupranolol]	109	89	91.5	99.5	107	98.2	99.8	93.6	105	104	99.3	97.6	104	97.8	94.6	101	98.1	99.6	101	104	93.6	97.5	97.2	100	103	> 10	> 10	> 10	> 10	> 10	0	0	0	0	0
C[C@@H]1NC(=O)[C@@H](N)CNC(=O)[C@H](C2CCNC(=N)N2)NC(=O)/C(=C/NC(N)=O)NC(=O)[C@H](CNC(=O)CC(N)CCCN)NC1=O.N=C1NCC[C@H]([C@@H]2NC(=O)/C(=C/NC(N)=O)NC(=O)[C@H](CNC(=O)C[C@@H](N)CCCN)NC(=O)[C@H](CO)NC(=O)[C@@H](N)CNC2=O)N1 [capreomycin]	96.2	94.8	98	95	99.3	104	100	105	95.3	108	94.4	102	105	108	99.1	103	100	102	96	106	98.8	105	102	94.1	94.8	> 10	> 10	> 10	> 10	> 10	0	0	0	0	0
CO/N=C(\C(=O)N[C@@H]1C(=O)N2C(C(=O)[O-])=C(C[n+]3ccn4ncccc43)CS[C@H]12)c1nsc(N)n1 [cefozopran]	93.7	97.9	96.5	96.7	99	102	104	93.6	104	118	89.7	90	88.8	104	102	97	97.7	102	107	104	92.7	99.9	94	98.7	109	> 10	> 10	> 10	> 10	> 10	0	0	0	0	0
CCOP(=S)(OCC)Oc1nc(Cl)c(Cl)cc1Cl [chlorpyrifos]	100	102	97.5	103	107	89.7	93.6	90.1	97	96.2	93.3	100	90.3	96.3	93.7	92.3	102	94.9	94.8	99.4	102	90.2	109	106	94.2	> 10	> 10	> 10	> 10	> 10	0	0	0	0	0
NS(=O)(=O)c1cc(C2(O)NC(=O)c3ccccc32)ccc1Cl (stereo not given) [chlorthalidone]	107	84.5	96.8	98.6	99	96.7	92	107	86.6	97.4	97.5	106	97.7	107	99.6	98.4	97.4	97.3	96.8	102	97.4	102	98.8	103	97.3	> 10	> 10	> 10	> 10	> 10	0	0	0	0	0
Cc1cc(O)c2c(c1)C(=O)c1cccc(O)c1C2=O [chrysophanic-acid]	102	91.2	92	92.5	88.9	104	98.1	92.4	91.2	93	98.4	104	97.8	95.7	105	99.5	103	96.7	104	97.7	93.5	97.3	100	93.5	96.1	> 10	> 10	> 10	> 10	> 10	0.8	0	0	0	0
Nc1ncnc2c1ncn2[C@@H]1O[C@H](CO)C[C@H]1O [cordycepin]	93.9	99	95.2	97.5	103	94.6	98.6	86.1	92.5	101	95.3	98.9	104	97.4	114	95.7	99.3	95	105	110	96.6	97	96.2	98.1	103	> 10	> 10	> 10	> 10	> 10	0	0	0	0	0
COc1ccc(CCN2CCN(CCCc3ccccc3)CC2)cc1OC [cutamesine]	97.9	95.6	96	92.9	98	95.9	110	102	119	96.8	91.5	97.2	88.9	98.4	85	106	100	104	93.5	96.8	102	92.5	102	96.2	95.6	> 10	> 10	> 10	> 10	> 10	0	0	0	0	0
Cc1c(O)c(=O)ccn1C [deferiprone]	92.4	98.3	93.4	116	93.4	89.6	106	109	100	98.2	103	97.4	98.3	97.1	101	96.5	100	100	94.5	96.2	101	102	99.3	98.1	99.9	> 10	> 10	> 10	> 10	> 10	0	0	0	0	0
CN(C)[C@@H]1C(O)=C(C(N)=O)C(=O)[C@@]2(O)C(O)=C3C(=O)c4c(O)ccc(Cl)c4[C@@H](O)[C@H]3C[C@@H]12 [demeclocycline]	99.9	95.9	101	95.5	96.3	112	115	102	98.9	93.4	89.5	97.6	97.3	102	94.9	105	98	101	96.3	93.8	98.1	103	110	99.6	91	> 10	> 10	> 10	> 10	> 10	0	0	0	0	0
